Each structure is given as a SMILES string.

The test system of one test is Escherichia coli (NIHJ). The test can be described thus: Sterilization effect determination test (Fujimoto's modified method of the Kelsey-Sykes method). Particulars: water remainder. The arrangement: key: D: There is no sterilization effect.; C: There is a sterilization effect in step (1) but no sterilization effect in step (2).; B: There is a sterilization effect up to step (2) but no sterilization effect in step (3).; A: There is a sterilization effect up to step (3). The format is cell-based.

The subject of test [1] is Staphylococcus aureus (209P). The description is as above. The class given is cell-based. The arrangement: key: D: There is no sterilization effect.; C: There is a sterilization effect in step (1) but no sterilization effect in step (2).; B: There is a sterilization effect up to step (2) but no sterilization effect in step (3).; A: There is a sterilization effect up to step (3). Particulars: water remainder.

Test [2] relates to Escherichia coli O-157 (enterohemorrhagic Escherichia coli O157: H7 EDL 933). The test can be described thus: Cutting board sterilization test. The format is cell-based. Particulars: 0.7 ml sprayed on contaminated cutting board; swab sample 1 minute later; cultured 24 hours at 37° C.
A further test has as its system general viable bacteria. The test can be described thus: Hand sterilization test (Sterilization Test 2). The note with it: 1.4 ml sprayed on washed and dried hand; swab sample 1 minute later; cultured 48 hours at 37° C.
Test [3] deals with Campylobacter jejuni subsp. Jejuni JCM2013. The test can be described thus: Sterilization test on beef (yukhoe; raw beef). The format is cell-based. The note with it: sprayed and mixed into inoculated beef; 24 hours after storage at 10° C.
The mark [4] stands for this setting: Table 3, compositions with sodium lactate blended.
Setting [5] is: Table 4, compositions with sodium lactate blended.
Setting [6] is: Table 1, compositions of calcinated calcium and ethanol, 20° C., steps (1)-(3).
Setting [7] is: Table 2, compositions of calcinated calcium and ethanol, 20° C., steps (1)-(3).

On to `CC(O)C(=O)[O-].[Na+]` (stereo not shown) [Sodium lactate 1.5 wt %, sodium lactate], for which the Sterilization effect entry (with Escherichia coli (NIHJ) (setting [4]); in test [1] (setting [5])) was “D” throughout.
In the case of `CCO` [Ethanol 5 wt %, ethanol], the Sterilization effect entry (with Escherichia coli (NIHJ) (setting [6]); in test [1] (setting [7])) was “D” in each case.
Take `CC(O)C(=O)[O-].[Na+]` (stereo not shown) [Sodium lactate 3 wt %, sodium lactate]: the Sterilization effect entry (with Escherichia coli (NIHJ) (setting [4]); in test [1] (setting [5])) was “D” each time.
Consider `CC(O)C(=O)[O-].[Na+]` (stereo not shown) [Sodium lactate 9 wt %, sodium lactate], for which the Sterilization effect entry is “no sterilization effect whatsoever and D” with Escherichia coli (NIHJ) (setting [4]); “D” in test [1] (setting [5]).
For `CCO` [70% ethanol, ethanol], the “Cutting board microbe eradication results (general viable bacteria count)” value in test [2] is on record as 2.8 × 10^4. The “Hand sterilization results (general viable bacteria count)” value in the test on general viable bacteria is reported as 6.2 × 10^3. Also, in test [3], the viable bacteria count is recorded as 10^5 to 10^6.
`CCO` [Ethanol 20 wt %, ethanol]: the Sterilization effect entry (in the test on Escherichia coli (NIHJ) (setting [6]); in test [1] (setting [7])) was “D” throughout.
Consider `CC(O)C(=O)[O-].[Na+]` (stereo not shown) [Sodium lactate 6 wt %, sodium lactate], for which the Sterilization effect entry (with Escherichia coli (NIHJ) (setting [4]); in test [1] (setting [5])) was “D” each time.
In the case of `CCO` [Ethanol 10 wt %, ethanol], the Sterilization effect result (in the test on Escherichia coli (NIHJ) (setting [6]); in test [1] (setting [7])) was “D” in each case.
`CCO` [Ethanol 50 wt %, ethanol]: the results for the Sterilization effect result (with Escherichia coli (NIHJ) (setting [6]); in test [1] (setting [7])) were “B” and “D”, respectively.
Taken in the same sequence, the figures for `CCO` [Ethanol 100 wt %, ethanol] were “A” and “A”.
Take `CC(O)C(=O)[O-].[Na+]` (stereo not shown) [Sodium lactate 4.5 wt %, sodium lactate]: the Sterilization effect result (with Escherichia coli (NIHJ) (setting [4]); in test [1] (setting [5])) was “D” throughout.
Turning to `CCO` [Ethanol 75 wt %, ethanol], the Sterilization effect entry (with Escherichia coli (NIHJ) (setting [6]); in test [1] (setting [7])) was “B” each time.

The record behind these values is patent US9060541B2, “Sterilizer for foods” (Kawakami Co., Ltd., priority 2009, dated 2015).
